This is an account of results in patent US10532103B2, “Degradation of cyclin-dependent kinase 9 (CDK9) by conjugation of CDK9 inhibitors with E3 ligase ligand and methods of use” (Dana-Farber Cancer Institute, Inc., priority 2016, dated 2020).

Structures are written as SMILES. Entries after “also recorded” stand apart in the source; their conditions may differ.

What all share (assay type): cell-based
One test concerns Molt4 wild-type cells. Put plainly: Cell viability assay (celltiter glo), wild-type cells. Particulars: wild-type (WT) Molt4 cells, titration, 72 hours. Here is the method:
(§1) Wild-type or cereblon null cells are treated with various concentrations of a bifunctional compound of the invention and allowed to grow. Cells are then assayed to determine cell viability by measuring the amount of ATP present, which is an indicator of cell metabolic activity. Results are graphed as relative luminescent values.
(§2) Molt4 wild-type or cereblon null cells were treated with a titration of a bifunctional compound of the invention (i.e., Compound I-1, Compound I-2, or Compound I-3) and allowed to grow for 72 hours. Cells were assayed using celltiter glo (Promega) to determine cell viability by measuring the amount of ATP present, which is an indicator of cell metabolic activity. Results are graphed as relative luminescent values.

In test [1] the test system is Molt4 cereblon null cells (CRBN−/−). Kind of test: Cell viability assay (celltiter glo), cereblon null cells. As to conditions: cereblon knockout (CRBN−/−) Molt4 cells, titration, 72 hours. Here is the method: as §1, §2
In the next test the target is T1, CDK9 (Homo sapiens, UniProt P50750).
T1 construct: endogenous in cells; host or cells: Jurkat cells
Kind of test: Enzyme degradation assay (western blot) in Jurkat cells, CDK9. Here is the method: (§3) Cells are treated with a control or a bifunctional compound of the application alone or in combination with an agent that blocks proteasomal degradation at a single concentration or various concentrations. After treatment, cells are washed and harvested by resuspending in buffer and lysed on ice 30 minutes. Lysates are then cleared by centrifugation. Samples are boiled and equal amount of protein is loaded onto polyacrylamide gel. The gel is transferred to nitrocellulose and blotted for CDK13, CDK12, CDK9, CDK7, CDK2, CDK1, PolII serine 2 phosphorylation or Tubulin.
(§4) Jurkat cells were treated with DMSO (as a control) or 500 nM of SNS-032 or 500 nM of a bifunctional compound of the application (i.e., Compound I-1, Compound I-2, or Compound I-3) or in combination with 5 μM MG132 for 6 hours. MGl32 is an agent that blocks proteasomal degradation. After treatment, cells were washed and harvested by resuspending in RIPA lysis buffer ([…] Tris-HCl, […] NaCl, 1% NP-40, 0.5% sodium deoxycholate, and 1% SDS, pH 7.4, protease and phosphatase inhibitors) and lysed on ice 30 minutes. Lysates were cleared by centrifugation at 15,000 rpm 30 minutes. Samples were boiled and equal amounts of protein were loaded onto gel. The gel was transferred to nitrocellulose and blotted for CDK13, CDK12, CDK9, CDK7, CDK2, CDK1, or tubulin.
(§5) Alternatively, Jurkat cells were treated with DMSO (as a control) or various concentrations of Compound I-3 alone (about 312 nm, 625 nm, 1.25 uM, 2.5 uM, and 5 uM) or with 5 μM MG132. After treatment, cells were washed and harvested by resuspending in RIPA lysis buffer ([…] Tris-HCl, […] NaCl, 1% NP-40, 0.5% sodium deoxycholate, and 1% SDS, pH 7.4, protease and phosphatase inhibitors) and lysed on ice 30 minutes. Equal amount of protein was loaded onto gel and blotted for CDK13, CDK9, CDK7, CDK2, CDK1, or tubulin.
(§6) Jurkat cells were treated with a DMSO (as a control) or various concentrations SNS-032 or Compound I-3 for 6 hours. After treatment, cells were washed and harvested by resuspending in RIPA lysis buffer ([…] Tris-HCl, […] NaCl, 1% NP-40, 0.5% sodium deoxycholate, and 1% SDS, pH 7.4, protease and phosphatase inhibitors) and lysed on ice 30 minutes. Equal amount of protein was loaded onto gel and blotted for […], CDK9, or tubulin.
(§7) Jurkat cells were treated with 500 nM of Compound I-3 for 15 minutes, 30 minutes, 1 hour, 2 hours, 3 hours, 4 hours, or 6 hours or DMSO control for 6 hours. After treatment, cells were washed and harvested by resuspending in RIPA lysis buffer ([…] Tris-HCl, […], 1% NP-40, 0.5% sodium deoxycholate, and 1% SDS, pH 7.4, protease and phosphatase inhibitors) and lysed on ice 30 minutes. Equal amount of protein was loaded onto gel and blotted for CDK13, CDK12, CDK9, or tubulin.

For another test, the target named is T2, CDK12 (Homo sapiens, UniProt Q9NYV4).
T2 construct: endogenous in cells; host or cells: Jurkat cells
Kind of test: Enzyme degradation assay (western blot) in Jurkat cells, CDK12. Particulars: for degradation of CDK12: 6 hours. Here is the method:
as §3, §4, §7

A further test has as its target T3, CDK13 (Homo sapiens, UniProt Q14004).
T3 construct: endogenous in cells; host or cells: Jurkat cells
Put plainly: Enzyme degradation assay (western blot) in Jurkat cells, CDK13. Here is the method: as §3, §4, §5, §7

In test [2] the test system is PolII serine 2 phosphorylation. Kind of test: Western blot for PolII serine 2 phosphorylation in Jurkat cells. As to conditions: various concentrations, 6 hours. Here is the method:
as §3, §6

T2 sequence (Q9NYV4 whole entry): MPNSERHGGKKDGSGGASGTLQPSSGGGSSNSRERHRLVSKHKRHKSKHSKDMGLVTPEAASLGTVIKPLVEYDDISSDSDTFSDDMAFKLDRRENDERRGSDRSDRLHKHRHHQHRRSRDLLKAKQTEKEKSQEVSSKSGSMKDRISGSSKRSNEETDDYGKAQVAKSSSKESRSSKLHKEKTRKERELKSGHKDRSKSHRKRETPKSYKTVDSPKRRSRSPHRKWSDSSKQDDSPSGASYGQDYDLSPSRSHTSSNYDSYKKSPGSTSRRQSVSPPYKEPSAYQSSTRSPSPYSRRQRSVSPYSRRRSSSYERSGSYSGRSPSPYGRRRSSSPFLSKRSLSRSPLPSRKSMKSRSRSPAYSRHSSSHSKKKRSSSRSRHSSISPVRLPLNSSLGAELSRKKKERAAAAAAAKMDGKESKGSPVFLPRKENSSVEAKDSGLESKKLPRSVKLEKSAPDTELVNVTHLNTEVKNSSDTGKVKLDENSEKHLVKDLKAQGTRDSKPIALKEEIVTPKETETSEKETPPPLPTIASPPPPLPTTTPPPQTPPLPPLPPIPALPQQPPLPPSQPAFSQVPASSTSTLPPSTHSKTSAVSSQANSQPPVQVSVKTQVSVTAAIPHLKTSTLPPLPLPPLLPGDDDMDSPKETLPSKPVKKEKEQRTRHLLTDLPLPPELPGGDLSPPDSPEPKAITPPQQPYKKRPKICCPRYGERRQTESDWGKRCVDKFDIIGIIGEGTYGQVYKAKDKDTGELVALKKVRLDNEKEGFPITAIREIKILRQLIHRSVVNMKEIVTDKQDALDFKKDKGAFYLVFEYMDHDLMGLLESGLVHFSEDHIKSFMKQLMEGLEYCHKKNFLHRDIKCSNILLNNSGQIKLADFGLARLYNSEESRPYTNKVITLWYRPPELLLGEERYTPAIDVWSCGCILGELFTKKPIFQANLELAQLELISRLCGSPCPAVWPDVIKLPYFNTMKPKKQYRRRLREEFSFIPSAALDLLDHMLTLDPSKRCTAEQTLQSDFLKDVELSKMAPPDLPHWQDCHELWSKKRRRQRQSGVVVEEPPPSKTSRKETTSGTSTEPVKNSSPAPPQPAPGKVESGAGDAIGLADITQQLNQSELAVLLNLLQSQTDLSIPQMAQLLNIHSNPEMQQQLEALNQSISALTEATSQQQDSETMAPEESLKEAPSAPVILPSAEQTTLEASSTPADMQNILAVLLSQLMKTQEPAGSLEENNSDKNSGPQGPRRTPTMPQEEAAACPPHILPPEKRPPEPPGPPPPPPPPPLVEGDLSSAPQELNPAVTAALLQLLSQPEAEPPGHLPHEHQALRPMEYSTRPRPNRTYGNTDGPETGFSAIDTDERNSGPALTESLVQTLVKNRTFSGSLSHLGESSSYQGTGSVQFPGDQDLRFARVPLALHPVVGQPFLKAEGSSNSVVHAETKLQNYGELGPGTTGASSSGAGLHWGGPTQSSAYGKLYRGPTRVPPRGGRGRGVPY
T2 sequence (O75909 whole entry partner): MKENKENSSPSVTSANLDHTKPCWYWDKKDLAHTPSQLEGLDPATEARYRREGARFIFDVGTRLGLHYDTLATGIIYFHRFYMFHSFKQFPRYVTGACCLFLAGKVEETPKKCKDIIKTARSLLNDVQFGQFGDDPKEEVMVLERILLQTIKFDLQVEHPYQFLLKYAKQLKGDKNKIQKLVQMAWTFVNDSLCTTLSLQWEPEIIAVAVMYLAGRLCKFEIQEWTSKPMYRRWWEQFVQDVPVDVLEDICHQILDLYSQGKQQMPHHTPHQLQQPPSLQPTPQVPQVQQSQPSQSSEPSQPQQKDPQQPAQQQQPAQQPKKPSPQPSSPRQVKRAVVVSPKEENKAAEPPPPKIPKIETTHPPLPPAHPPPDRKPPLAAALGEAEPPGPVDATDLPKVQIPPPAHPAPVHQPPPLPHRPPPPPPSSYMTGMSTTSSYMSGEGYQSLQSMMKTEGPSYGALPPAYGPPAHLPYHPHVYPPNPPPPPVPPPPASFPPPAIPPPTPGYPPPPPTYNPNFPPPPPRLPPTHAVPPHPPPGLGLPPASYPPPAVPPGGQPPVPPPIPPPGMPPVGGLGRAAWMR
T3 sequence (Q14004 whole entry): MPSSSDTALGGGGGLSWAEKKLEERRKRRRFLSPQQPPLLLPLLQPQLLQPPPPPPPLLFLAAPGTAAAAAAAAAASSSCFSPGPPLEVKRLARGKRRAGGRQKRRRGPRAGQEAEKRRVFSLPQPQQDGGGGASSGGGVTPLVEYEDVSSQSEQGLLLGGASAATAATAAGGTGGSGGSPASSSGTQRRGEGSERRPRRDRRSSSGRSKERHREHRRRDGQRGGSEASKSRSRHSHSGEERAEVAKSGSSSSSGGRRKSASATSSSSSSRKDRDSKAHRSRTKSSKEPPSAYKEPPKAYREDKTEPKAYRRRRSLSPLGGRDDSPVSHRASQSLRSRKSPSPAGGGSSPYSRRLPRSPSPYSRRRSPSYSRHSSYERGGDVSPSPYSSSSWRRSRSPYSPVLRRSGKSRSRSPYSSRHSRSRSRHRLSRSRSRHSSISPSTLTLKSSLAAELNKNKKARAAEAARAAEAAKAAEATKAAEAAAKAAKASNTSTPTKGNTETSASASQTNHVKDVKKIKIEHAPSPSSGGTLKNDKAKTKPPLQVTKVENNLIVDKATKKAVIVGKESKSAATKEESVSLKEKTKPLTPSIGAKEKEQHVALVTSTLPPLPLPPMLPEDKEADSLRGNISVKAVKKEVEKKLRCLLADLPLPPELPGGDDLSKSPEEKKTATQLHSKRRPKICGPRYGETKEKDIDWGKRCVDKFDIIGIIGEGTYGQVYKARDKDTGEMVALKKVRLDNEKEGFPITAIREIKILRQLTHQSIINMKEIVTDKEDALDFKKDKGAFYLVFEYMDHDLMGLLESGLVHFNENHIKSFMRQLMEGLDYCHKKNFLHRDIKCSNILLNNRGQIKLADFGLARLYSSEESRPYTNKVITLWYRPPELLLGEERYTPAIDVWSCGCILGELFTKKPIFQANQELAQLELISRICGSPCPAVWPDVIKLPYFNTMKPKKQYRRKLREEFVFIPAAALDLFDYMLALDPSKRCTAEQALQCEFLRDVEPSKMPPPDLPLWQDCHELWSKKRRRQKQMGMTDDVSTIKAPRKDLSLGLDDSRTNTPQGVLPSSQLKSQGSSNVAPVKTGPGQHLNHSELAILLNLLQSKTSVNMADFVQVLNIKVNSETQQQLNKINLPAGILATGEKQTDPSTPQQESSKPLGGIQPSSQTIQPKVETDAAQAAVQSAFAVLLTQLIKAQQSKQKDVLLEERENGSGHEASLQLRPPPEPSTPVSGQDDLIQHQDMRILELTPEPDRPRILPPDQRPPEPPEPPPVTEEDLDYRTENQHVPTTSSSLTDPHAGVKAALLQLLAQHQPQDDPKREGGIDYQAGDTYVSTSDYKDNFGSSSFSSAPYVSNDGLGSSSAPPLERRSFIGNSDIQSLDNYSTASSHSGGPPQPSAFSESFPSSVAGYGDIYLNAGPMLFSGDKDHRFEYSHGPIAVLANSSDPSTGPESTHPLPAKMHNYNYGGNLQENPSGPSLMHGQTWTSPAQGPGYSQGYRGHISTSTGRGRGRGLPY
T3 sequence (O75909 whole entry partner): as the sequence (O75909 whole entry partner) above
T1 sequence (P50750 whole entry): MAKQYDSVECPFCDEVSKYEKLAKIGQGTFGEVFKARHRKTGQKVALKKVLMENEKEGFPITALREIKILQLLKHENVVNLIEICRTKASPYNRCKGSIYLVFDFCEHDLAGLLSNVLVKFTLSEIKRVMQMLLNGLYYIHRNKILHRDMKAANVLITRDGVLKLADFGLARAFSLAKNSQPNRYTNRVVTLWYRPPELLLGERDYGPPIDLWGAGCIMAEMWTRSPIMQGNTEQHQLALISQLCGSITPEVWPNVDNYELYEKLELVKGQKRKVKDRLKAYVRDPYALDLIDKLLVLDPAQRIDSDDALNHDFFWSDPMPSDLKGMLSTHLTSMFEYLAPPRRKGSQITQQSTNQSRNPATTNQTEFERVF
T1 sequence (O60563 whole entry partner): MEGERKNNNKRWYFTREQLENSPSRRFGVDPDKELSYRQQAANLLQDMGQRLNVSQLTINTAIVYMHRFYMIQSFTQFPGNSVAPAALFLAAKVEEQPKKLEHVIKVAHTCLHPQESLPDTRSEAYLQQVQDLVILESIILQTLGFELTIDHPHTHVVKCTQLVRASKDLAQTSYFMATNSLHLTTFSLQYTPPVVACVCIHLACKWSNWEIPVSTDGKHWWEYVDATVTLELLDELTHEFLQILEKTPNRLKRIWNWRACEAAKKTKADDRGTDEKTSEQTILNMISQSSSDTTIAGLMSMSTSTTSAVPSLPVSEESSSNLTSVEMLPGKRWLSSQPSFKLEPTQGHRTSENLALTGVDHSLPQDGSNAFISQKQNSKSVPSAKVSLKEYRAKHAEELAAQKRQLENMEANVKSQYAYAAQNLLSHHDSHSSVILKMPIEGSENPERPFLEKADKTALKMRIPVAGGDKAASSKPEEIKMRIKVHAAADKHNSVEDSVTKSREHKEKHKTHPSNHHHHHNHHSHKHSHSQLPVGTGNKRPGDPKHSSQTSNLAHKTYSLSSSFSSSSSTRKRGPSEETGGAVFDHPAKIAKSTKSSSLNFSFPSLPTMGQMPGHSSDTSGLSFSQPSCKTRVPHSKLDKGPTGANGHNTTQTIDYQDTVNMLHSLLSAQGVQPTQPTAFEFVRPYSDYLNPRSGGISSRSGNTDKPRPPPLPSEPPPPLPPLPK

Consider `CC(C)(C)c1cnc(CSc2cnc(NC(=O)C3CCN(CC(=O)NCCOCCOCCOCCNc4cccc5c4C(=O)N(C4CCC(=O)NC4=O)C5=O)CC3)s2)o1` (centres unmarked) [Compound I-3, N-(5-(((5-(tert-butyl)oxazol-2-yl)methyl)thio)thiazol-2-yl)-1-(14-((2-(2,6-dioxopiperidin-3-yl)-1,3-dioxoisoindolin-4-yl)amino)-2-oxo-6,9,12-trioxa-3-azatetradecyl)piperidine-4-carboxamide], for which the results for the anti-proliferative effect entry (in the test on Molt4 wild-type cells; in test [1]) were “showed antiproliferative effects; also recorded: caused anti-proliferation” and “not in the CRBN−/− cells; also recorded: anti-proliferation was no longer observed”, respectively. For the same molecule, at CDK9 (500 nM + 5 uM MG132, 6 hours), the “degradation of CDK9 on co-treatment with MG132” value was “reduced; also recorded: largely inhibited”. For the same molecule, the “CDK9 levels over time” value on CDK9 (500 nM, 15 minutes to 6 hours) was “decrease in CDK9 levels over time; also recorded: degradation of CDK9 increased with time of exposure”. Also, the “degradation of CDK9” value at CDK9 (500 nM, 6 hours) is “complete degradation”. In addition, the “degradation of CDK9, various concentrations” value on CDK9 (about 312 nm to 5 uM, 6 hours) is “specificity for CDK9 at lower concentrations; also recorded: degradation also increased”. In addition, the “degradation of CDK9, various concentrations, with MG132” value at CDK9 (with 5 μM MG132, 6 hours) was “abolished degradation of CDK9”. Besides, the “degradation of CDK12 on co-treatment with MG132” value on CDK12 (500 nM + 5 uM MG132, 6 hours) was “abolished; also recorded: largely inhibited”. For the same molecule, the “CDK12 levels over time” value at CDK12 (500 nM, 15 minutes to 6 hours) is “unaffected”. The “degradation of CDK12” value at CDK12 (500 nM) is “partial degradation”. Besides, at CDK13 (500 nM + 5 uM MG132, 6 hours), the “degradation of CDK13 on co-treatment with MG132” value is given as “abolished; also recorded: largely inhibited”. Further, the “CDK13 levels over time” value at CDK13 (500 nM, 15 minutes to 6 hours) is given as “unaffected”. Also, on CDK13 (500 nM, 6 hours), the “degradation of CDK13” value is “partial degradation”. Besides, the “degradation of CDK13, various concentrations” value on CDK13 (about 312 nm to 5 uM, 6 hours) is listed as “CDK13 degradation at higher concentrations; also recorded: degradation also increased”. Besides, on CDK13 (with 5 μM MG132, 6 hours), the “degradation of CDK13, various concentrations, with MG132” value is “abolished”. Also, the “serine 2 phosphorylation of PolII” value in test [2] is reported as “decreased serine 2 phosphorylation”.

As to `CC(C)(C)c1cnc(CSc2cnc(NC(=O)C3CCNCC3)s2)o1` [SNS032, N-(5-(((5-(tert-butyl)oxazol-2-yl)methyl)thio)thiazol-2-yl)piperidine-4-carboxamide, reference compound], the “degradation of CDK9” value at CDK9 (500 nM, 6 hours) was “no degradation”. For the same molecule, the “degradation of CDK12” value on CDK12 (500 nM) is on record as “no degradation”. Also, the “degradation of CDK13” value on CDK13 (500 nM, 6 hours) is “no degradation”. The “serine 2 phosphorylation of PolII” value in test [2] is listed as “decreased serine 2 phosphorylation”.
